According to PubChem BioAssay AID342 (DTP/NCI, 2004):
“And” between values parts separate entries of the source, which are not always exact repeats. Equal entries are not always repeated.

Test system: Swiss mice, Sarcoma 180 sc, mean tumor weight T/C
Test: NCI In Vivo Anticancer Drug Screen. Data for tumor model Sarcoma 180 (subcutaneous) in Swiss mice
Details: endpoint: mean tumor weight, higher = larger tumour
Summary of the method: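 Readout is the ratio of treated-group measurement to vehicle-control measurement (T/C), based on survival or tumor size in mice carrying transplanted tumors.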

[1] = dose: 0.25 mg/kg/injection, schedule: Q#A X014 (ip), vehicle: carboxymethylcellulose (CMC)
[2] = dose: 0.5 mg/kg/injection, schedule: Q#A X014 (ip), vehicle: carboxymethylcellulose (CMC)
[3] = dose: 50.0 mg/kg/injection, schedule: Q01DX007 (sc), vehicle: steriod suspending solution

With `Cn1cc(NC(=O)c2cc(NC(=O)c3cc(NC=O)cn3C)cn2C)cc1C(=O)NCCC(=N)N` the T/C (dose: 20.0 mg/kg/injection, schedule: Q01DX007 (sc), vehicle: water) was 80 % of control, the T/C (dose: 25.0 mg/kg/injection, schedule: Q01DX007 (sc), vehicle: water) was 77 % of control and the T/C (dose: 40.0 mg/kg/injection, schedule: Q01DX007 (sc), vehicle: water) was 92 % of control. For the same molecule, the T/C (dose: 50.0 mg/kg/injection, schedule: Q01DX007 (sc), vehicle: water) was 64 % of control and the T/C (dose: 75.0 mg/kg/injection, schedule: Q01DX007 (sc), vehicle: water) was 71 % of control.

In the case of `N=[N+]=CC(=O)OCC(N)C(=O)O` (configuration not stated), the T/C [1] is reported as 61 % of control, the T/C [2] is reported as 35 % of control and the T/C (dose: 0.57 mg/kg/injection, schedule: Q#A X014 (ip), vehicle: carboxymethylcellulose (CMC)) is reported as 65 % of control. The T/C (dose: 0.92 mg/kg/injection, schedule: Q01DX007 (ip), vehicle: carboxymethylcellulose (CMC)) was 33 % of control, the T/C (dose: 1.0 mg/kg/injection, schedule: Q#A X014 (ip), vehicle: carboxymethylcellulose (CMC)) was 25 % of control and the T/C (dose: 1.15 mg/kg/injection, schedule: Q01DX007 (ip), vehicle: carboxymethylcellulose (CMC)) was 39 % of control. The T/C (dose: 1.15 mg/kg/injection, schedule: Q#A X014 (ip), vehicle: carboxymethylcellulose (CMC)) was 7 % of control, the T/C (dose: 1.53 mg/kg/injection, schedule: Q01DX007 (ip), vehicle: carboxymethylcellulose (CMC)) was 30 % of control and the T/C (dose: 2.1 mg/kg/injection, schedule: Q01DX007 (ip), vehicle: carboxymethylcellulose (CMC)) was 11 % of control and 12 % of control. The T/C (dose: 2.3 mg/kg/injection, schedule: Q01DX007 (ip), vehicle: carboxymethylcellulose (CMC)) was 14 % of control, the T/C (dose: 2.3 mg/kg/injection, schedule: Q#A X014 (ip), vehicle: carboxymethylcellulose (CMC)) was 3 % of control and the T/C (dose: 4.2 mg/kg/injection, schedule: Q01DX007 (ip), vehicle: carboxymethylcellulose (CMC)) was 3 % of control and 7 % of control. For the same molecule, the T/C (dose: 4.6 mg/kg/injection, schedule: Q#A X014 (ip), vehicle: carboxymethylcellulose (CMC)) was 4 % of control and the T/C (dose: 6.3 mg/kg/injection, schedule: Q01DX007 (ip), vehicle: carboxymethylcellulose (CMC)) was 2 % of control and 5 % of control.

In the case of `C[C@]12CC[C@H](O)C[C@H]1CC[C@@H]1[C@@H]2CC[C@]2(C)[C@@H](C3=CC(=O)OC3)[C@@H](O)C[C@]12O`, the T/C (dose: 3.0 mg/kg/injection, schedule: Q01DX007 (sc), vehicle: steriod suspending solution) is reported as 78 % of control, the T/C (dose: 10.0 mg/kg/injection, schedule: Q01DX007 (sc), vehicle: steriod suspending solution) is reported as 64 % of control and the T/C (dose: 25.0 mg/kg/injection, schedule: Q01DX007 (sc), vehicle: steriod suspending solution) is reported as 50 % of control. The T/C [3] was 70 % of control.

With `COc1ccc2c(c1)CC[C@@H]1[C@@H]2CC[C@@]2(C)[C@H]1CC[C@@]2(O)C(F)=C(F)F` the T/C (dose: 33.0 mg/kg/injection, schedule: Q01DX007 (sc), vehicle: steriod suspending solution) was 52 % of control, the T/C [3] was 46 % of control and the T/C (dose: 75.0 mg/kg/injection, schedule: Q01DX007 (sc), vehicle: steriod suspending solution) was 44 % of control. For the same molecule, the T/C (dose: 111.0 mg/kg/injection, schedule: Q01DX007 (sc), vehicle: steriod suspending solution) was 45 % of control, the T/C (dose: 167.0 mg/kg/injection, schedule: Q01DX007 (sc), vehicle: steriod suspending solution) was 37 % of control and the T/C (dose: 250.0 mg/kg/injection, schedule: Q01DX007 (sc), vehicle: steriod suspending solution) was 50 % of control. For the same molecule, the T/C (dose: 375.0 mg/kg/injection, schedule: Q01DX007 (sc), vehicle: steriod suspending solution) was 55 % of control.

`O=C1C=CC2(CCC23C=CC(=O)O3)O1` (configuration not stated) was tested, and the T/C (dose: 40.0 mg/kg/injection, schedule: Q01DX007 (ip), vehicle: saline) was 88 % of control.

For `Nc1nc(Cc2ccccc2)cc(=O)[nH]1`, the T/C (dose: 62.5 mg/kg/injection, schedule: Q01DX007 (ip), vehicle: water) was 88 % of control, the T/C (dose: 125.0 mg/kg/injection, schedule: Q01DX007 (ip), vehicle: water) was 78 % of control and the T/C (dose: 250.0 mg/kg/injection, schedule: Q01DX007 (ip), vehicle: water) was 67 % of control.

`Nc1nc(Cl)ncc1F` was tested, and the T/C (dose: 25.0 mg/kg/injection, schedule: Q01DX007 (ip), vehicle: saline) was 101 % of control, the T/C (dose: 50.0 mg/kg/injection, schedule: Q01DX007 (ip), vehicle: saline) was 83 % of control and the T/C (dose: 100.0 mg/kg/injection, schedule: Q01DX007 (ip), vehicle: saline) was 92 % of control.

With `O=C(Nc1ccc(C2=NCCN2)cc1)c1cccc(C(=O)Nc2ccc(C3=NCCN3)cc2)c1` the T/C (dose: 1.2 mg/kg/injection, schedule: Q01DX007 (ip), vehicle: carboxymethylcellulose (CMC)) was 167 % of control, the T/C (dose: 4.7 mg/kg/injection, schedule: Q01DX007 (ip), vehicle: carboxymethylcellulose (CMC)) was 109 % of control and the T/C (dose: 9.4 mg/kg/injection, schedule: Q01DX007 (ip), vehicle: carboxymethylcellulose (CMC)) was 117 % of control. The T/C (dose: 60.0 mg/kg/injection, schedule: Q01DX007 (ip), vehicle: carboxymethylcellulose (CMC)) was 163 % of control, the T/C (dose: 120.0 mg/kg/injection, schedule: Q01DX007 (ip), vehicle: carboxymethylcellulose (CMC)) was 98 % of control and the T/C (dose: 240.0 mg/kg/injection, schedule: Q01DX007 (ip), vehicle: carboxymethylcellulose (CMC)) was 79 % of control.

`COS(C)(=O)=O` was tested, and the T/C (dose: 25.0 mg/kg/injection, schedule: Q01DX007 (ip), vehicle: carboxymethylcellulose (CMC)) was 89 % of control and the T/C (dose: 50.0 mg/kg/injection, schedule: Q01DX007 (ip), vehicle: carboxymethylcellulose (CMC)) was 66 % of control.

`CCOC(C)C(/C=N/NC(N)=S)=NNC(N)=S` (configuration not stated) was tested, and the T/C (dose: 15.0 mg/kg/injection, schedule: Q01DX007 (ip), vehicle: saline) was 82 % of control, the T/C (dose: 30.0 mg/kg/injection, schedule: Q01DX007 (ip), vehicle: saline) was 37 % of control and the T/C (dose: 60.0 mg/kg/injection, schedule: Q01DX007 (ip), vehicle: saline) was 47 % of control. The T/C (dose: 120.0 mg/kg/injection, schedule: Q01DX007 (ip), vehicle: saline) was 20 % of control.

`CN(Cc1cnc2nc(N)nc(N)c2n1)c1ccc(C(=O)N[C@@H](CCC(=O)O)C(=O)O)cc1` was tested, and the T/C (dose: 0.12 mg/kg/injection, schedule: Q01DX007 (ip), vehicle: water) was 101 % of control, the T/C (dose: 0.12 mg/kg/injection, schedule: Q#A X014 (ip), vehicle: carboxymethylcellulose (CMC)) was 123 % of control and the T/C (dose: 0.25 mg/kg/injection, schedule: Q01DX007 (ip), vehicle: water) was 57 % of control. The T/C [1] was 121 % of control, the T/C (dose: 0.5 mg/kg/injection, schedule: Q01DX007 (ip), vehicle: carboxymethylcellulose (CMC)) was 95 % of control and 110 % of control and the T/C [2] was 73 % of control. The T/C (dose: 0.76 mg/kg/injection, schedule: Q01DX007 (ip), vehicle: carboxymethylcellulose (CMC)) was 119 % of control, the T/C (dose: 1.0 mg/kg/injection, schedule: Q01DX007 (ip), vehicle: carboxymethylcellulose (CMC)) was 107 % of control and the T/C (dose: 1.26 mg/kg/injection, schedule: Q01DX007 (ip), vehicle: carboxymethylcellulose (CMC)) was 68 % of control. The T/C (dose: 1.5 mg/kg/injection, schedule: Q01DX007 (ip), vehicle: carboxymethylcellulose (CMC)) was 78 % of control and 86 % of control, the T/C (dose: 1.9 mg/kg/injection, schedule: Q01DX007 (ip), vehicle: carboxymethylcellulose (CMC)) was 68 % of control and the T/C (dose: 237.0 micrograms/kg/injection, schedule: Q01DX007 (ip), vehicle: carboxymethylcellulose (CMC)) was 105 % of control. The T/C (dose: 475.0 micrograms/kg/injection, schedule: Q01DX007 (ip), vehicle: carboxymethylcellulose (CMC)) was 104 % of control, the T/C (dose: 950.0 micrograms/kg/injection, schedule: Q01DX007 (ip), vehicle: carboxymethylcellulose (CMC)) was 83 % of control and the T/C (dose: 1900.0 micrograms/kg/injection, schedule: Q01DX007 (ip), vehicle: carboxymethylcellulose (CMC)) was 32 % of control.

`COc1ccc2c(c1)CC[C@@H]1[C@@H]2CC[C@]2(C)C[C@@](C)(O)C[C@@H]12` was tested, and the T/C (dose: 0.25 mg/kg/injection, schedule: Q#A X014 (sc), vehicle: steriod suspending solution) was 100 % of control, the T/C (dose: 1.25 mg/kg/injection, schedule: Q#A X014 (sc), vehicle: steriod suspending solution) was 84 % of control and the T/C (dose: 2.5 mg/kg/injection, schedule: Q#A X014 (ip), vehicle: methylcellulose (MC)) was 94 % of control. The T/C (dose: 10.0 mg/kg/injection, schedule: Q#A X014 (ip), vehicle: methylcellulose (MC)) was 98 % of control.

`CN(CC#N)/N=N/c1nc[nH]c1C(N)=O` was tested, and the T/C (dose: 225.0 mg/kg/injection, schedule: Q01DX007 (ip), vehicle: carboxymethylcellulose (CMC)) was 38 % of control.

`CC(C)CC(C#N)C(N)=O` (configuration not stated) was tested, and the T/C (dose: 7.5 mg/kg/injection, schedule: Q01DX007 (ip), vehicle: methylcellulose (MC)) was 108 % of control and the T/C (dose: 30.0 mg/kg/injection, schedule: Q01DX007 (ip), vehicle: methylcellulose (MC)) was 96 % of control.

In the case of `O=C(O)c1[nH]c(=O)[nH]c(=O)c1F`, the T/C (dose: 3.35 mg/kg/injection, schedule: Q#A X014 (ip), vehicle: methylcellulose (MC)) is reported as 62 % of control, the T/C (dose: 5.0 mg/kg/injection, schedule: Q#A X014 (ip), vehicle: methylcellulose (MC)) is reported as 49 % of control and the T/C (dose: 7.5 mg/kg/injection, schedule: Q#A X014 (ip), vehicle: methylcellulose (MC)) is reported as 46 % of control. For the same molecule, the T/C (dose: 11.25 mg/kg/injection, schedule: Q#A X014 (ip), vehicle: methylcellulose (MC)) was 22 % of control.

With `c1ccc(N2N=C3N(c4ccccc4)C2N3c2ccccc2)cc1` the T/C (dose: 15.0 mg/kg/injection, schedule: Q01DX007 (ip), vehicle: other) was 114 % of control and the T/C (dose: 31.0 mg/kg/injection, schedule: Q01DX007 (ip), vehicle: other) was 72 % of control.
